Target: T1, human TGR5 (Homo sapiens, UniProt Q8TDU6)
T1 construct: expressed in transfected cells
T1 sequence (Q8TDU6 1-330): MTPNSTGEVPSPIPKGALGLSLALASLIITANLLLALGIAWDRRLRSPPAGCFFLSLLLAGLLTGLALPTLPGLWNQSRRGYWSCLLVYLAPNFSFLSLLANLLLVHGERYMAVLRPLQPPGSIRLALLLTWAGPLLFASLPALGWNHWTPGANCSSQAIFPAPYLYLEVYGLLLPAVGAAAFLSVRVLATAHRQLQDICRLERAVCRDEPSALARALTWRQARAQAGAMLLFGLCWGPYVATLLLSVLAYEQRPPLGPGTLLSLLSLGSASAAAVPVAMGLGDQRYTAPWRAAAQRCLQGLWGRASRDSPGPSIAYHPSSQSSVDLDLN
Experiment: cAMP production assay in HEK293 cells stably expressing TGR5 (LANCE cAMP, TR-FRET)
Assay type: cell-based
Conditions: stimulated with test compounds for 30 minutes, 1 mM IBMX, read-out: cAMP Production in 293-TGR5 Cells
Protocol: HEK293 cells stably expressing TGR5 (HEK293-TGR5) were established by stably transfecting HEK-293 cells with an expression vector (pcDNA 3.1, Invetrogen) inserted with human TGR5 cDNA using Fugene6 (Roche, Indianapolis, Ind.) according to conventional methods. Cells were grown in DMEM (invitrogen, Carlsbad, Calif.) supplemented with 10% FBS, 1% penicillin/streptomycin under geneticin selection. The presence of TGR5 transcripts in these cells was confirmed using branched DNA (bDNA, Genospectra, Inc., Fremont Calif.) following the manufacturer's protocol and using specific probes for human TGR5. cAMP production assay was performed in high throughput 1536 well format using LANCE cAMP detection kit (Perkin Elmer Inc., Boston, Mass.) according to the manufacturer's protocol. Briefly, HEK293-TGR5 cells were harvested using non-enzymatic cell dissociation buffer (Invitrogen, Carlsbad, Calif.) and suspended in DMEM supplemented with 0.1% FBS at a density of 800,000 cells/ml. Alexa antibody was added to the cell suspension, and 4 ul of the mixture was dispensed in white opaque tissue culture treated Greiner 1536 well plates (USA Scientific, Inc., Ocala, Fla.). After an overnight incubation at 37 C in an atmosphere of 10% CO2 and 95% humidity, 1 ul of 5 mM IBMX (Sigma, St. Louis, Mo.) solution in DMEM was dispensed for a final concentration of 1 mM. Cells were then stimulated with test compounds for 30 minutes, after which time 5 ul of detection reagent was added and incubated for 1-7 hrs at room temperature. TR-FRET signal was detected using the Viewlux (Perkin Elmer Inc., Boston Mass.). EC50 values were determined using Graph Pad Prizm analysis (GraphPad Software, Inc). The EC50 values for a wide range of bile acids generated from this assay were in agreement with the values published in the scientific literature. […] The symbol (+) denotes an EC50 value of ≦10 μM while the symbol (−) denotes an EC50 value of >10 μM (see Table 1).

Compound	EC50 [µM]
O=c1c2sccc2nc(-c2ccc(F)cc2)n1NCc1ccc(Br)cc1 [Example 35, 3-{[(4-Bromophenyl)methyl]amino}-2-(4-fluorophenyl)-3H,4H-thieno[3,2-d]pyrimidin-4-one]	≤ 10
O=c1c2sccc2nc(-c2ccc(F)cc2)n1NCc1ccc(Cl)c(Cl)c1 [Example 36, 3-{[(3,4-Dichlorophenyl)methyl]amino}-2-(4-fluorophenyl)-3H,4H-thieno[3,2-d]pyrimidin-4-one]	≤ 10
O=c1c2sccc2nc(-c2ccc(F)cc2)n1NCc1ccc(Cl)cc1 [Example 37, 3-{[(4-Chlorophenyl)methyl]amino}-2-(4-fluorophenyl)-3H,4H-thieno[3,2-d]pyrimidin-4-one]	≤ 10
Cn1cnc2nc(-c3ccc(F)cc3)n(NCc3ccc(Br)cc3)c(=O)c21 [Example 38, 1-{[(4-Bromophenyl)methyl]amino}-2-(4-fluorophenyl)-7-methyl-6,7-dihydro-1H-purin-6-one]	≤ 10
Cn1cnc2nc(-c3ccc(F)cc3)n(NCc3ccc(Cl)cc3)c(=O)c21 [Example 39, 1-{[(4-Chlorophenyl)methyl]amino}-2-(4-fluorophenyl)-7-methyl-6,7-dihydro-1H-purin-6-one]	≤ 10
Cn1ncc2nc(-c3ccc(F)cc3)n(NCc3ccc(Br)cc3)c(=O)c21 [Example 40, 6-{[(4-Bromophenyl)methyl]amino}-5-(4-fluorophenyl)-1-methyl-1H,6H,7H-pyrazolo[4,3-d]pyrimidin-7-one]	≤ 10
Cn1ncc2nc(-c3ccc(F)cc3)n(NCc3ccc(Cl)cc3)c(=O)c21 [Example 41, 6-{[(4-Chlorophenyl)methyl]amino}-5-(4-fluorophenyl)-1-methyl-1H,6H,7H-pyrazolo[4,3-d]pyrimidin-7-one]	≤ 10
Cn1ncc2nc(-c3ccc(F)cc3)n(NCc3ccc(F)c(F)c3)c(=O)c21 [Example 42, 6-{[(3,4-Difluorophenyl)methyl]amino}-5-(4-fluorophenyl)-1-methyl-1H,6H,7H-pyrazolo[4,3-d]pyrimidin-7-one]	> 10
O=c1c2nccnc2nc(-c2ccc(F)cc2)n1NCc1ccc(Cl)cc1 [Example 43, 3-{[(4-Chlorophenyl)methyl]amino}-2-(4-fluorophenyl)-3,4-dihydropteridin-4-one]	≤ 10
N#Cc1ccc(CNn2c(-c3ccc(F)cc3)nc3nccnc3c2=O)cc1 [Example 44, 4-({[2-(4-Fluorophenyl)-4-oxo-3,4-dihydropteridin-3-yl]amino}methyl)benzonitrile]	≤ 10
O=c1c2nccnc2nc(-c2ccc(F)cc2)n1NCc1ccc(Cl)c(F)c1 [Example 45, 3-{[(4-Chloro-3-fluorophenyl)methyl]amino}-2-(4-fluorophenyl)-3,4-dihydropteridin-4-one]	≤ 10
O=c1c2nccnc2nc(-c2ccc(F)cc2)n1NCc1ccc(Cl)cc1F [Example 46, 3-{[(4-Chloro-2-fluorophenyl)methyl]amino}-2-(4-fluorophenyl)-3,4-dihydropteridin-4-one]	≤ 10
Cc1cncc(-c2nc3nccnc3c(=O)n2NCc2ccc(Cl)cc2)c1 [Example 47, 3-{[(4-Chlorophenyl)methyl]amino}-2-(5-methylpyridin-3-yl)-3,4-dihydropteridin-4-one]	≤ 10
Cc1cncc(-c2nc3nccnc3c(=O)n2NCc2ccc(C#N)cc2)c1 [Example 48, 4-({[2-(5-Methylpyridin-3-yl)-4-oxo-3,4-dihydropteridin-3-yl]amino}methyl)benzonitrile]	≤ 10
O=c1c2nccnc2nc(-c2cncc(Cl)c2)n1NCc1ccc(Cl)cc1 [Example 49, 3-{[(4-Chlorophenyl)methyl]amino}-2-(5-chloropyridin-3-yl)-3,4-dihydropteridin-4-one]	≤ 10
O=c1c2nccnc2nc(-c2ccc(F)cc2)n1/N=C/c1ccc(Br)cc1 [Example 50, 3-[(E)-[(4-Bromophenyl)methylidene]amino]-2-(4-fluorophenyl)-3,4-dihydropteridin-4-one]	> 10
O=c1c2c(nc(-c3ccc(F)cc3)n1NCc1ccc(Br)cc1)CNCC2 [Example 51, 3-{[(4-Bromophenyl)methyl]amino}-2-(4-fluorophenyl)-3H,4H,5H,6H,7H,8H-pyrido[3,4-d]pyrimidin-4-one]	> 10
